Entries after “also recorded” stand apart in the source; their conditions may differ. Values belong to the compound of their own block, whether it stands above or below them.
Experiments:
Assay type in all cases: in vivo, human
[1] = Study 3201: serum urate in patients with acute manic episodes associated with bipolar I disorder, by SLC2A9 rs7442295 genotype and sex; settings: for LS Mean Change (SE) in serum urate from baseline: 24 mg/day oral (12 mg bid)
Protocol: (§1) A multi-center, randomized, double-blind, placebo-controlled study is performed to evaluate the safety and efficacy of iloperidone for four (4) weeks in the treatment of patients with acute manic episodes associated with bipolar I disorder (“Study 3201”). Patients in the study are randomized to orally receive either iloperidone at a dose of 24 mg/day given in a divided dose as 12 mg twice daily (bid), or matched placebo.
These increases are illustrated in FIG. 1 using solid data points.
To test the hypothesis of altered urate serum levels in association with variants in the SLC2A9 gene, whole genome sequencing is conducted from blood samples, genotype status is obtained through standard data analysis, and linear models for SLC2A9 variants are performed on urate concentration in samples collected at baseline (corrected for PCs, age, sex) and samples collected at the end of the study (EOS).
As shown in FIGS. 3-4, the rs7442295 variant of interest has a statistically significant effect on iloperidone-induced change in serum urate levels from baseline to Day 28 in patients with bipolar disorder. FIG. 3 illustrates individual patient changes in serum urate (in μmol/L) from baseline to Day 28, grouped according to treatment group (iloperiodone or placebo) and carrier status for variant rs7442295, while FIG. 4 illustrates mean serum levels for at patient evaluations conducted at baseline and Day 28, separated according to treatment group (iloperidone or placebo) and patient carrier status for rs7442295. The significant interaction affecting change is particularly observed between genotype*sex*treatment (full model: Multiple R-squared: 0.09251, Adjusted R-squared: 0.07078, F-statistic: 4.256 on 8 and 334 DF, p=0.00006942).
This observation is statistically significant when comparing genotypes at BOS as well as when comparing GG with AG and AA genotypes between treatment and placebo group in both males and females combined. Table 2 (below) provides mean change from baseline to Day 28 by treatment group and carrier status for variant rs7442295, and Table 3 (below) provides LS mean change in serum urate from baseline to Day 28 evaluations for serum urate by treatment group and carrier status for variant rs7442295) (SD=standard deviation).

[2] = Studies 3201 and 3101 (Examples 1 and 2), conclusions on serum urate
Protocol: as §1
(§2) A study is performed to evaluate the efficacy and safety of iloperidone compared with placebo and active control (ziprasidone) in subjects with acute schizophrenia (“Study 3101”). Patients are randomized to receive one of iloperidone at a dose of 24 mg/day given in a divided dose as 12 mg twice daily (bid), active comparator ziprasidone, or placebo. […] Uric acid results are converted to SI units using the conversion 1 mg/dL=59.5 μmol/L.

[3] = Study 3101: serum urate (uric acid) in subjects with acute schizophrenia, by SLC2A9 rs7442295 genotype
Protocol: as §2
Results are provided in Table 6 below, including an increase of 28.0 μmol/L for iloperidone compared to a decrease of 4.2 μmol/L in placebo groups.
Patient genotypes are obtained via a commercial 500k SNP Gene Chip Human Mapping Array. To test the hypothesis of altered urate serum levels in association with variants in SLC2A9, linear models for SLC2A9 variants are performed on urate at baseline levels (corrected for PCs, age, sex) followed by samples collected at end of study (EOS).

Percentage of patients with serum urate above ULN ([1]; Baseline, female, genotype AA (4/42), ULN 394 μmol/l): 9.5% | Percentage of patients with serum urate above ULN ([1]; Baseline, female, genotype AG (3/39), ULN 394 μmol/l): 7.7% | Percentage of patients with serum urate above ULN ([1]; Baseline, female, genotype GG (0/7), ULN 394 μmol/l): 0.0% | Serum urate at baseline (SE) ([1]; Baseline, iloperidone group, bipolar mania, n=206): 323.0 (77.13), 206 μmol/L | Percentage of patients with serum urate above ULN ([1]; Baseline, male, genotype AA (6/60), ULN 453 μmol/l): 10.0% | Percentage of patients with serum urate above ULN ([1]; Baseline, male, genotype AG (1/41), ULN 453 μmol/l): 2.4% | Percentage of patients with serum urate above ULN ([1]; Baseline, male, genotype GG (1/12), ULN 453 μmol/l): 8.3% | Percentage of patients with serum urate above ULN ([1]; Baseline, male, genotype GG (1/12), ULN 453 μmol/l, listed as iloperidone): about 8.3% | LS Mean Difference (95% CI) in serum urate change vs placebo ([1]; Day 7, bipolar mania): 1.3 (−9.29, 11.88) μmol/L | LS Mean Change (SE) in serum urate from baseline ([1]; Day 7, bipolar mania, n=199): −2.7 (−4.07), 199 μmol/L | LS Mean Difference (95% CI) in serum urate change vs placebo ([1]; Day 14, bipolar mania): 15.3 (4.50, 26.15) μmol/L | LS Mean Change (SE) in serum urate from baseline ([1]; Day 14, bipolar mania, n=173): 12.6 (−4.28), 173 μmol/L | LS Mean Difference (95% CI) in serum urate change vs placebo ([1]; Day 21, bipolar mania): 21.0 (8.91, 33.18) μmol/L | LS Mean Change (SE) in serum urate from baseline ([1]; Day 21, bipolar mania, n=157): 19.1 (−5.24), 157 μmol/L | LS Mean Change (SE) in serum urate from baseline ([1]; Day 28 (endpoint), bipolar mania, n=142): 27.2 (−4.93), 142 μmol/L | LS Mean Change (SE) in serum urate from baseline ([1]; Day 28 (endpoint), bipolar mania, n=142, listed as iloperidone): 27.2 µmol/L | Fold greater increase in serum urate from baseline compared to placebo ([1]; Day 28, bipolar mania): 4 fold | LS Mean Difference (95% CI) in serum urate change vs placebo ([1]; Day 28, bipolar mania): 27.1 (14.94, 39.20) μmol/L | LS Mean Difference (95% CI) in serum urate change vs placebo ([1]; Day 28, genotype AA, female): 27.85 (2.93, 52.76) μmol/L | LS Mean Difference (95% CI) in serum urate change vs placebo ([1]; Day 28, genotype AA, male): 35.52 (12.82, 58.22) μmol/L | LS Mean Difference in serum urate change vs placebo ([1]; Day 28, genotype AA, 95% CI (14.82, 49)): 31.91 µmol/L | LS Mean Difference (95% CI) in serum urate change vs placebo ([1]; Day 28, genotype AG, female): −7.9 (−34.82, 19.03) μmol/L | LS Mean Difference (95% CI) in serum urate change vs placebo ([1]; Day 28, genotype AG, male): 40.79 (14.61, 66.96) μmol/L | LS Mean Difference in serum urate change vs placebo ([1]; Day 28, genotype AG, 95% CI (−4.18, 33.86)): 14.84 µmol/L | LS Mean Difference (95% CI) in serum urate change vs placebo ([1]; Day 28, genotype GG, female): 3.08 (−50.97, 57.13) μmol/L | LS Mean Difference (95% CI) in serum urate change vs placebo ([1]; Day 28, genotype GG, male): 102.96 (48.93, 156.99) μmol/L | LS Mean Difference in serum urate change vs placebo ([1]; Day 28, genotype GG, 95% CI (18.91, 94.99)): 56.95 µmol/L | Mean change from baseline in serum urate ([1]; Day 28, 24 mg/day, all genotypes, bipolar mania): 33.4 µmol/L | LS Mean Difference (95% CI) in serum urate change vs placebo ([1]; EOS (LOCF), genotype AA, female): 15.97 (−6.71, 38.64) μmol/L | LS Mean Difference (95% CI) in serum urate change vs placebo ([1]; EOS (LOCF), genotype AA, male): 18.99 (−0.89, 38.86) μmol/L | LS Mean Difference (95% CI) in serum urate change vs placebo ([1]; EOS (LOCF), genotype AG, female): −1.4 (−25.85, 23.06) μmol/L | LS Mean Difference (95% CI) in serum urate change vs placebo ([1]; EOS (LOCF), genotype AG, male): 19.58 (−2.91, 42.08) μmol/L | LS Mean Difference (95% CI) in serum urate change vs placebo ([1]; EOS (LOCF), genotype GG, female): 4.54 (−50.43, 59.52) μmol/L | LS Mean Difference (95% CI) in serum urate change vs placebo ([1]; EOS (LOCF), genotype GG, male): 88.45 (38.7, 138.21) μmol/L | LS Mean Difference in serum urate change vs placebo ([1]; EOS, genotype AA, 95% CI (3.19, 33.28)): 18.23 µmol/L | LS Mean Difference in serum urate change vs placebo ([1]; EOS, genotype AG, 95% CI (−8.27, 25.48)): 8.61 µmol/L | LS Mean Difference in serum urate change vs placebo ([1]; EOS, genotype GG, 95% CI (18.68, 92.13)): 55.4 µmol/L | Increase in serum urate in G/G patients (in words) ([1]; genotype GG, bipolar mania): nearly twice as large | Fold increase in percentage of patients with high urate levels (above ULN) ([1]; male, genotype GG, baseline to end of study): approximately 4 fold | Increase in serum urate in G/G patients (in words) ([2]; genotype G/G, both studies): nearly twice as large | Serum urate at Day 0 (SE) ([3]; Day 0, iloperidone group, schizophrenia, n=300): 318.3 (73.19), 300 μmol/L | LS Mean Difference (95% CI) in serum urate change vs placebo ([3]; Day 14, schizophrenia): 18.4 (6.55. 29.93) μmol/L | LS Mean Change (SE) in serum urate from baseline ([3]; Day 14, 24 mg/day (12 mg bid), schizophrenia, n=276): 15.5 (58.85), 276 μmol/L | LS Mean Difference (95% CI) in serum urate change vs placebo ([3]; Day 28, genotype AA): 10.05 (14.90, 35.97) μmol/L | LS Mean Difference (95% CI) in serum urate change vs placebo ([3]; Day 28, genotype AG): 30.02 (−2.86, 57.63) μmol/L | LS Mean Difference (95% CI) in serum urate change vs placebo ([3]; Day 28, genotype GG): 52.4 (0.33, 104.45) μmol/L | Fold greater increase from baseline in blood uric acid compared to placebo ([3]; Day 28, schizophrenia): roughly 4 fold | LS Mean Difference (95% CI) in serum urate change vs placebo ([3]; Day 28, schizophrenia): 23.8 (9.16. 37.96) μmol/L | LS Mean Change (SE) in serum urate from baseline ([3]; Day 28, iloperidone 24 mg/day (12 mg bid), schizophrenia, n=206): 28.0 (4.05), 206 μmol/L | LS Mean Change (SE) in serum urate from baseline ([3]; Day 28, iloperidone 24 mg/day (12 mg bid), schizophrenia, n=206, listed as iloperidone): 28.0 µmol/L
Structure (SMILES): COc1cc(C(C)=O)ccc1OCCCN1CCC(c2noc3cc(F)ccc23)CC1 [Iloperidone, 1-[4-[3-[4-(6-flouro-1,2-benzisoxazol-3-yl)-1-piperidinyl]propoxy]-3-methoxyphenyl]ethanone]
Effect on serum urate (in words) ([1]; bipolar mania, vs placebo): statistically significant increase in serum urate; also recorded: associated with increases in serum urate compared to placebo | Iloperidone-associated increase in serum urate in rs7442295-G/G individuals (in words) ([1]; genotype GG, bipolar mania): significant in individuals who are homozygous for the rs7442295 (G) allele | Serum urate relative to ULN in G/G individuals treated with iloperidone (in words) ([1]; genotype GG, especially males, ULN 453 (male), 394 (female) μmol/l): a significant number of individuals (particularly homozygous G/G males) exceed the upper limit of normal (ULN); also recorded: above ULN value in individuals that are homozygous (GG) for the rs7442295 (G) allele | Effect on serum urate compared to placebo (in words) ([2]; bipolar disorder and schizophrenia): associated with increases in serum urate compared to placebo | Change from baseline in uric acid relative to ziprasidone arm (in words) ([3]; Day 28, schizophrenia): more than twice the change from baseline observed in the ziprasidone arm | Iloperidone-induced change in serum urate with GG genotype, by sex (in words) ([3]; genotype GG, male schizophrenia patients): particular pronounced in male schizophrenia patients | Effect on serum urate compared to placebo (in words) ([3]; schizophrenia, ANCOVA): statistically significant increase in serum urate

LS mean change from baseline to endpoint in serum urate ([3]; ziprasidone active comparator arm, schizophrenia): 13.1 µmol/L
Structure (SMILES): O=C1Cc2cc(CCN3CCN(c4nsc5ccccc45)CC3)c(Cl)cc2N1 [ziprasidone]
Increase in serum urate relative to iloperidone (in words) ([3]; ziprasidone arm, schizophrenia): approximately half of that seen in with iloperidone treatment

Reference: US20260345573A1, “METHOD OF TREATMENT WITH ILOPERIDONE” (Vanda Pharmaceuticals Inc., priority 2023, published 2026)
